Where two headings read alike, the source gives them in different places.
Tests used:
[1] = system: S. aureus SA113 (ATCC 35556); experiment: Bacterial growth (A578) and biofilm formation (crystal violet, A595) in 96-well polystyrene microtiter plates; assay type: cell-based, Staphylococcus aureus; conditions: for IC50: Staphylococcus aureus, read-out: IB50 (concentration that inhibited 50% biofilm formation); for Cell Growth (%): growth compared to untreated control at the concentration of IB50
Procedure: An overnight bacterial culture was 200-fold diluted with TSBg, and a 200 μL aliquot of the diluted culture was seeded into each well of 96-well polystyrene microtiter plates and incubated at 37° C. for a designated period of time. Cell growth was determined by measuring the absorbance at 578 nm (A578) with a microtiter plate reader (SpectraMax 340, Molecular Devices). After washing with PBS twice to remove suspended cells, the wells were stained with 0.1% (w/v) crystal violet in 10% ethanol and then treated with 30% acetic acid in dH2O, followed by detecting the absorbance at 595 nm (A595) with the microtiter plate reader to quantify the amount of biofilm formed on polystyrene surface.
An overnight culture of S. aureus SA113 was 200-fold diluted with TSBg, and a 200 μL aliquot of the diluted culture was seeded into each well of 96-well microtiter plates. Compounds purified from medicinal plants were added into each well at a designated concentration up to […]. At 6 hours after seeding, the amounts of biofilms formed in the wells were determined by crystal violet staining as described above. Cells treated with either distilled water or DMSO were used as a control. The amount of biofilm formation by the control group was set as 100%. Each experiment was repeated at least three times, with n=6 for each sample tested. The concentrations of compounds that inhibited 50% biofilm formation (IB50) were calculated based on logistic regression analysis results. Besides, the biofilm formation inhibition rate of a PGG-treated group was calculated using the following equation (1). Biofilm formation inhibition rate(%)=[(A−B)/A]×100 (1) wherein:
In the wells of 96-well microtiter plates, S. aureus SA113 cells were cultured in TSBg broth in the presence of either β-PGG or α-PGG at different amounts (0, 1 and 10 μM). After incubation at 37° C. for 6 hrs, the cell density was determined by measuring the absorbance at 578 nm (A578), and the amounts of biofilm were quantified by crystal violet staining, with the amount of biofilm formed by untreated bacterial cells being set as 100%. Each experiment was repeated three times, with n=6 for each sample tested.
To determine the effect(s) of (β-PGG upon bacterial growth and biofilm formation, β-PGG in various amounts (final concentration: 0, 1.56, 3.13, 6.25, 12.5, 25 and 50 μM) was added into the culture of S. aureus SA113 during seeding into the wells of polystyrene microtiter plates, followed by incubation at 37° C. for 6 hrs or 24 hrs. Cell growth was determined by measuring the absorbance at 578 nm, and the amount of biofilm formed on polystyrene surface was determined at 595 nm after crystal violet staining. In addition to polystyrene surface, the effect of β-PGG in inhibiting biofilm formation on polycarbonate surface was also examined according to the procedures as described in the preceding section entitled “Materials and methods.”

[2] = system: S. aureus; experiment: Biofilm formation after treatment with other strong antioxidants (data not shown); assay type: cell-based, Staphylococcus aureus
[3] = ATCC35556, 6 hours, logistic regression

IC50 [1, 3] [µM] | Compound | Cell Growth (%) [1] [%] | influence on biofilm formation [2] | other results
 | NC(=O)CI [IDA, Iodoacetamide, reference compound] | 50 |  | IC50 ([1]; ATCC35556, 6 h): 120 µM
6380 | CC(=O)N[C@@H](CS)C(=O)O [NAC, N-acetylcysteine, reference compound] | 88 |  | 
41.9 | O=C1C=CC(=O)N1c1ccccc1 [NPM, N-phenyl maleimide, reference compound] | 66 |  | 
 | O=C1O[C@H]([C@@H](O)CO)C(O)=C1O [ascorbic acid] |  | does not influence biofilm formation | 
 | O=C(OC[C@H]1O[C@H](OC(=O)c2cc(O)c(O)c(O)c2)[C@H](OC(=O)c2cc(O)c(O)c(O)c2)[C@@H](OC(=O)c2cc(O)c(O)c(O)c2)[C@@H]1OC(=O)c1cc(O)c(O)c(O)c1)c1cc(O)c(O)c(O)c1 [α-PGG, 1,2,3,4,6-Penta-O-galloyl-α-D-glucopyranose] |  |  | viability of S. aureus SA113 cells (A578) ([1]; 1 μM and 10 μM, 6 hour incubation (anomer comparison)): did not affect the viability; reduction of biofilm formation ([1]; 1 μM, 6 hour incubation (anomer comparison)): 13%; reduction of biofilm formation ([1]; 10 μM, 6 hour incubation (anomer comparison)): 65%
 | (−)-epigallocatechin gallate |  | does not influence biofilm formation | 

Reference: patent US9181290B2, “Inhibition of biofilm formation by 1,2,3,4,6-penta-O-galloyl-D-glucopyranose” (CHANG GUNG UNIVERSITY, priority 2011, dated 2015)
